“Also recorded” adds a separate entry of the source. Structures can show the parent of a compound that is named as a salt.
How the values were obtained:
C57BL/6 mice [1] = assay: Marble burying test (MBT) in mice; type: in vivo; settings: SC, 30 minutes prior, 30-minute period, vs. vehicle
Protocol: Animals. Adult male C57BL/6 mice, aged 8-10 weeks (body weight 20-25 g), were used in these experiments. Animals were housed under controlled temperatures and 12-hour light/dark cycles (lights on between 07:00-19:00 h), with ad libitum food and water. All efforts were made to minimize suffering.
Drugs and Drug Administration. Compound 4 was prepared as described above. Desipramine HCl was commercially obtained. The test compound, vehicle, and the positive control desipramine were administered subcutaneously (SC), with doses calculated based on the freebase. Normal saline was used as the vehicle. All compounds were administered at a volume of 10 ml/kg. All treatments were administered 30 minutes prior to the start of behavioral testing. Group size was n=9-10 per treatment.
Marble Burying Test (MBT). […] Mice were handled for about 2 min daily for the 3 days prior to the beginning of the experimental procedure. Twenty glass marbles (16 mm diameter) were placed at equal distances in a 5×4 pattern on a 5-cm layer of corn-cob bedding, with marbles at least 2 cm from the borders of the cage. The total number of marbles buried were counted in three 10-minute time bins (total 30 minutes). A marble was considered buried when it was >⅔ covered by bedding material.
Statistical Analysis. The data points shown are the mean ±standard error of the mean (SEM). Analysis was performed using GraphPad Prism 6. […]

C57BL/6 mice [2] = assay: Conditioned place preference in mice; type: in vivo; settings: SC, abuse liability model, vs. vehicle; hydrochloride
Protocol: Animals. Male C57BL/6 mice, 5-8 weeks of age, (body weight 25-30 g; Envigo, Indianapolis, IN, USA) were housed 5 per polycarbonate tub with soft bedding in a temperature-and humidity-controlled vivarium. Mice were maintained under a 12-h light/dark cycle with lights on at 06:00. Food and water were available ad libitum. Animals acclimated to the vivarium for 1 week prior to experimental manipulations.
Drugs and Drug Administration. Compound 4 was prepared as described above. All other compounds were commercially obtained. Compound 4 and saline vehicle were administered subcutaneously (SC), with doses calculated based on the HCl salt, while the positive control oxycodone was administered intraperitoneally (IP), with the dose calculated based on the HCl salt. […]
Conditioned Place Preference. Reward and/or aversion was assessed in conditioned place preference chambers (Model MED-CPP-3013; Med Associates, St. Albans, VT). […]
Group size was n=10 per treatment. […] Final drug preference was assessed in a 15-minute post-conditioning trial and was calculated by subtracting the time in the drug-paired compartment at baseline from the time in the drug-paired compartment post-conditioning, with positive values reflecting reward and negative values reflecting aversion.
For all trials, time spent in chambers as well as movement was quantified by infrared photobeam detectors and calculated by Med-PC IV software. […]

CCN(C)CCc1c[nH]c2ccc(F)cc12 [Compound 4, N-ethyl-2-(5-fluoro-1H-indol-3-yl)-N-methylethan-1-amine hydrochloride]
number of marbles buried (C57BL/6 mice [1]): dose-dependent reduction
preference for the drug-paired compartment (C57BL/6 mice [2]): did not induce any significant preference; also recorded: not significantly different from vehicle
